Patent US9211325B2, “Peptide adjuvants” (priority 2008, dated 2015)

Experiments:
Design in all cases: species or system BALB/c mice
Details in all cases: mouse, in vivo
[1] = test system: HA (peptide pools derived from HA)
[2] = test system: Total anti-HBS antibodies
[3] = test system: Total anti-influenza IgG antibodies
[4] = test system: homologous influenza virus isolate used for immunization (MDCK cells, CPE)

Substance	T-cell response (ELISPOT), FIG. 18 [1]	Neutralizing antibody response, FIG. 2 [4]	also measured
CYYWC (Short peptide sequence not known to occur in nature)	below the baseline of HA alone		
CYWWW (Short peptide sequence not known to occur in nature)	generated a significant T-cell response		
free peptide (KWCEC; Short peptide sequence not known to occur in nature)			Total anti-HBS antibodies (ELISA) response [2]: strong response at both 6 and 8 weeks post immunization; antibody response (ELISA) after fluviral vaccination [3]: stronger response at both 6 and 8 weeks post immunization
EMWCM (Short peptide sequence not known to occur in nature)	did not		
KWCEC (Short peptide sequence not known to occur in nature) [5mer4]		caused a significant antibody response	T cell response (ELISPOT) compared with other adjuvants, FIG. 16 [1]: stronger than that generated with alum alone and comparable to that generated by CpG
CHKWD (Short peptide sequence not known to occur in nature) [5mer1]		did not cause a strong neutralizing antibody response	
KYMCW (Short peptide sequence not known to occur in nature) [5mer7]		caused a significant antibody response	
WHKCE (Short peptide sequence not known to occur in nature) [5mer2]		did not cause a strong neutralizing antibody response	
EHWCM (Short peptide sequence not known to occur in nature)	generated a large T-cell response		
CKWRC (Short peptide sequence not known to occur in nature) [5mer3]		did not cause a strong neutralizing antibody response	
